# Source: ChEMBL document CHEMBL4190339, “Design, synthesis and preliminary biological evaluation of new [1,2,3]triazolo[4,5-d]pyrimidine/thiourea hybrids as antiproliferative agents” (Eur J Med Chem, 2017)
# Key:
# A549 = test: Antiproliferative activity against human A549 cells after 48 hrs by MTT assay; type: functional, cell-based; conditions: A549, 48 h
# MKN-45 = test: Antiproliferative activity against human MKN45 cells after 48 hrs by MTT assay; type: functional, cell-based; conditions: MKN-45, 48 h
# GES1 = test: Antiproliferative activity against human GES-1 cells after 48 hrs by MTT assay; type: cell-based; conditions: GES1, 48 h
# MGC-803 = test: Antiproliferative activity against human MGC803 cells after 48 hrs by MTT assay; type: functional, cell-based; conditions: MGC-803, 48 h
# ECa-109 cell line = test: Antiproliferative activity against human EC109 cells after 48 hrs by MTT assay; type: functional, cell-based; conditions: ECa-109, 48 h
# NCI-H1650 = test: Antiproliferative activity against human NCI-H1650 cells after 48 hrs by MTT assay; type: functional, cell-based; conditions: NCI-H1650, 48 h
Compound,IC50 (A549) [µM],IC50 (MKN-45) [µM],IC50 (GES1) [µM],IC50 (MGC-803) [µM],IC50 (ECa-109 cell line) [µM],IC50 (NCI-H1650) [µM]
CCCSc1nc(NCCNC(=S)Nc2cccnc2)c2nnn(CCc3ccccc3)c2n1,8.23,6.58,30.3,16.4,4.99,2.38
CCCSc1nc(NCCNC(=S)Nc2cccnc2)c2nnn(CC(C)C)c2n1,10.6,19.2,48.2,25.2,> 64,15.3
CCCSc1nc(NCCNC(=S)Nc2ccccc2Cl)c2nnn(CCc3ccccc3)c2n1,> 64,> 64,> 64,> 64,> 64,18.2
CCCSc1nc(NCCNC(=S)Nc2cccc(C(F)(F)F)c2)c2nnn(CCc3ccccc3)c2n1,17.2,35.6,23.2,33.9,17.8,24.2
CCCSc1nc(NCCNC(=S)Nc2ccccn2)c2nnn(CCc3ccccc3)c2n1,5.91,8.09,23.1,11.6,5.41,7.62
CCCSc1nc(NCCNC(=S)NCc2ccccc2)c2nnn(CCc3ccccc3)c2n1,> 64,22.9,51.3,17.4,13.8,> 64
O=c1[nH]cc(F)c(=O)[nH]1 [FLUOROURACIL],,,9.02,,,
CCCSc1nc(NCCNC(=S)Nc2ccc(Br)cc2)c2nnn(CCc3ccccc3)c2n1,32.5,40,> 64,38.1,23.1,51.1
CCCCc1ccc(NC(=S)NCCNc2nc(SCCC)nc3c2nnn3CCc2ccccc2)cc1,> 64,> 64,> 64,31.2,18.9,40.9
